# Source: patent publication US20250332178A1, “METHODS OF TREATING MYCOBACTERIAL INFECTIONS USING TETRACYCLINE COMPOUNDS” (priority 2018, published 2025)
# Like-named read-outs stand apart in the source and are kept apart here.
# Assays:
# [1] = daily; previously shown (Bax et al.); cited from earlier work
# [2] = tested on: M. intracellulare; test: MIC (CLSI broth dilution), slow-growing NTM isolates; assay type: cell-based
# [3] = Stability of antimicrobial drugs, large-plate agar diffusion assay; assay type: physicochemical; conditions: within the first 24 hours
# Protocol: Antimicrobial activity over time was assessed using the standard large-plate agar diffusion assay as previously described in detail (Bennett et al., Appl. Microbiol. 1966, 14 (2): 170-7). In short, a Staphylococcus aureus strain susceptible to omadacycline and a Micrococcus luteus strain susceptible to tigecycline were plated onto solid diagnostic sensitivity test (D.S.T.) agar (Oxoid, Hampshire, UK). A two-fold increasing standard concentration series was prepared.
structure (smiles),measurement,setting,value
"CN(C)c1cc(NC(=O)CNC(C)(C)C)c(O)c2c1C[C@H]1C[C@H]3[C@H](N(C)C)C(O)=C(C(N)=O)C(=O)[C@@]3(O)C(O)=C1C2=O [Tigecycline, tigecycline]",decline in concentration,[1],80%
"NCC[C@H](O)C(=O)N[C@@H]1C[C@H](N)[C@@H](O[C@H]2O[C@H](CN)[C@@H](O)[C@H](O)[C@H]2O)[C@H](O)[C@H]1O[C@H]1O[C@H](CO)[C@@H](O)[C@H](N)[C@H]1O [Amikacin, amikacin]",MIC,"[2]; isolate 6, MAC",8 µg/mL
same,MIC,"[2]; isolate 7, MAC",8 µg/mL
same,MIC,"[2]; isolate 8, MAC",16 µg/mL
same,MIC,"[2]; isolate 9, MAC",16 µg/mL
same,MIC,"[2]; isolate 10, MAC",16 µg/mL
"CN(C)c1cc(CNCC(C)(C)C)c(O)c2c1C[C@H]1C[C@H]3C(N(C)C)C(O)=C(C(N)=O)C(=O)[C@@]3(O)C(O)=C1C2=O (stereo partly drawn) [Omadacycline, (4aS,5aR,12aS)-4,7-bis(dimethylamino)-3,10,12,12a-tetrahydroxy-9-((neopentylamino)methyl)-1,11-dioxo-1,4,4a,5,5a,6,11,12a-octahydrotetracene-2-carboxamide]",decline in concentration,[3],20%
